Experimental findings from patent EP0485091A1, “Process for the production of analogues of immunomycin” (MERCK & CO. INC., priority 1990, dated 1992) are described below.

This test deals with T lymphocytes. Kind of test: T-cell proliferation assay (tritiated thymidine uptake, ionomycin + PMA stimulation; also called IL-2 assay). Type of test: cell-based, C57B1/6 mice. To be noted: for IC50: Mouse T cell cultures, pulsed with 3H-thymidine for 4 hours prior to harvesting at 48 hours. The procedure:
Cells were pelleted by centrifugation at 1500 rpm for 8 minutes. Contaminating red cells were removed by treating the pellet with ammonium chloride lysing buffer (GIBCO) for 2 minutes at 4°C. Cold medium was added and cells were again centrifuged at 1500 rpm for 8 minutes. T lymphocytes were then isolated by separation of the cell suspension on nylon wool columns as follows: Nylon wool columns were prepared by packing approximately 4 grams of washed and dried nylon wool into 20 ml plastic syringes. The columns were sterilized by autoclaving at 250°F for 30 minutes. Nylon wool columns were wetted with warm (37°C) culture medium and rinsed with the same medium. Washed spleen cells resuspended in warm medium were slowly applied to the nylon wool. The columns were then incubated in an upright position at 37°C for 1 hour. Non-adherent […] were eluted from the columns with warm culture medium and the cell suspensions were spun as above.
The cell suspension was immediately distributed into 96 well flat-bottom microculture plates (Costar) at 200 µl/well. […] The proliferation of T lymphocytes was assessed by measurement of tritiated thymidine incorporation. After 44 hours of culturing, the cells were pulse-labelled with 2 µCi/well of tritiated thymidine (NEN, Cambridge, MA). After another 4 hours of incubation, cultures were harvested on glass fiber filters using a multiple sample harvester. Radioactivity of filter discs corresponding to individual wells as measured by standard liquid scintillation counting methods (Betacounter). Mean counts per minute of replicate wells were calculated and the results expressed as percent inhibition of tritiated thymidine uptake (profileration) as follows [drawing 11]
• 1. Mouse T cell cultures were pulsed with ³H-thymidine for 4 hours prior to harvesting at 48 hours. • 2.

Consider `C=CC[C@@H]1/C=C(\C)C[C@H](C)C[C@H](OC)[C@H]2O[C@@](O)(C(=O)C(=O)N3CCCC[C@H]3C(=O)O[C@H](/C(C)=C/[C@@H]3CC[C@@H](O)[C@H](OC)C3)[C@H](C)[C@@H](O)CC1=O)[C@H](C)C[C@@H]2OC` [L-679,934, reference compound], for which, for the setting “Mus musculus, T-lymphocyte, 48 h, read-out: percent inhibition of tritiated thymidine uptake (proliferation)”, the inhibition at 0.01 µg/mL stood at 99%.

The term IC50 denotes the point on the concentration scale where inhibition reaches its midpoint. As to `CCC[C@@H]1/C=C(\C)C[C@H](C)C[C@H](OC)[C@H]2O[C@@](O)(C(=O)C(=O)N3CCCC[C@H]3C(=O)O[C@H](/C(C)=C/[C@@H]3CC[C@@H](O)[C@H](OC)C3)[C@H](C)[C@@H](O)CC1=O)[C@H](C)C[C@@H]2OC` [fraction 510], the “Inhibition of T-cell proliferation after addition of recombinant human IL-2” value (50 units/ml of recombinant human IL-2 added at the initiation of culture) was “reversed”. The IC50 is, setting by setting: (T-lymphocyte) 0.82 ng/mL; (T-lymphocyte, same value in molar unit) 1.02 nM.
